Measured values as given in ChEMBL document CHEMBL1146140 (Bioorg Med Chem Lett, 2006).

Key:
[1] = target: T1, 1-deoxy-D-xylulose 5-phosphate reductoisomerase (Escherichia coli K-12, UniProt P45568); assay: Inhibition of recombinant Escherichia coli DXR
T1 sequence (P45568 whole entry): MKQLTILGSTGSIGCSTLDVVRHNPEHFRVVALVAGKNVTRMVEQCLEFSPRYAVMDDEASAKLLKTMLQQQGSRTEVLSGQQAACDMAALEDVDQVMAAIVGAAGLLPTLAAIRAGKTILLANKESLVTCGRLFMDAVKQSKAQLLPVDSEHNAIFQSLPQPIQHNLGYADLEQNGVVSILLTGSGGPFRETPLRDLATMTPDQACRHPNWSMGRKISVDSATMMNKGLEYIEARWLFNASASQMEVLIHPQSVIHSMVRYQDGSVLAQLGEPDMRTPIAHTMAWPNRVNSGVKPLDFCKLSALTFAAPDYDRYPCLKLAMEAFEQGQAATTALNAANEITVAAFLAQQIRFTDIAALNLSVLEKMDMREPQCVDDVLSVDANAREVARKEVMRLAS

Plasmodium falciparum [2] = assay: Antimalarial activity against Plasmodium falciparum Dd2; format: functional, organism-based
Plasmodium falciparum [3] = assay: Antimalarial activity against Plasmodium falciparum 3D7; format: functional, organism-based

SMILES	IC50 [1] [nM]	IC50 (Plasmodium falciparum [2]) [nM]	IC50 (Plasmodium falciparum [3]) [nM]
COc1ccc(C(CCN(O)C=O)P(=O)(O)O)cc1 (stereo not given)	156	200	360
CC(=O)N(O)CCCP(=O)(O)O [FR-900098]	30	180	320
CC(=O)N(O)CCC(c1ccccc1)P(=O)(O)O (stereo not given)	–	350	550
O=CN(O)CCCP(=O)(O)O [FOSMIDOMYCIN]	–	360	1100
O=CN(O)CCC(c1ccc(Cl)c(Cl)c1)P(=O)(O)O (stereo not given)	59	28	90

More lines, now with the values ahead:

IC50 [1] [nM]	IC50 (Plasmodium falciparum [2]) [nM]	IC50 (Plasmodium falciparum [3]) [nM]	SMILES
99	95	350	CC(=O)N(O)CCC(c1ccc(Cl)cc1)P(=O)(O)O (stereo not given)
459	270	850	COc1ccc(C(CCN(O)C(C)=O)P(=O)(O)O)cc1 (stereo not given)
396	220	950	CC(=O)N(O)CCC(c1ccc(C)cc1)P(=O)(O)O (stereo not given)
119	90	250	CC(=O)N(O)CCC(c1ccc(Cl)c(Cl)c1)P(=O)(O)O (stereo not given)
